Here are results for 19 compounds from BindingDB's records for patent US20250313563 (The Broad Institute, 2025).

Test [1] has as its target Glycogen synthase kinase-3 beta (Homo sapiens, UniProt P49841). The test is described as follows: TR-FRET Assay. In a few lines: (§1)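 30 min preinc w/ cpd in assay buffer → kinase rxn → EDTA quench → add detection mix (40 nM SA-d2, 2 nM Tb-pSer641 Ab) → TR-FRET read.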
(TR-FRET usually uses a lanthanide donor and a delayed reading to cut background.)

Test [2] has as its target Glycogen synthase kinase-3 alpha (Homo sapiens, UniProt P49840). The test is described as follows: TR-FRET Assay. In a few lines: as §1

Several values for one entry are separate records, joined by “and”; a condition that tells them apart may be missing. Equal values may be shown once.

Glycogen synthase kinase-3 alpha, sequence (P49840 whole entry): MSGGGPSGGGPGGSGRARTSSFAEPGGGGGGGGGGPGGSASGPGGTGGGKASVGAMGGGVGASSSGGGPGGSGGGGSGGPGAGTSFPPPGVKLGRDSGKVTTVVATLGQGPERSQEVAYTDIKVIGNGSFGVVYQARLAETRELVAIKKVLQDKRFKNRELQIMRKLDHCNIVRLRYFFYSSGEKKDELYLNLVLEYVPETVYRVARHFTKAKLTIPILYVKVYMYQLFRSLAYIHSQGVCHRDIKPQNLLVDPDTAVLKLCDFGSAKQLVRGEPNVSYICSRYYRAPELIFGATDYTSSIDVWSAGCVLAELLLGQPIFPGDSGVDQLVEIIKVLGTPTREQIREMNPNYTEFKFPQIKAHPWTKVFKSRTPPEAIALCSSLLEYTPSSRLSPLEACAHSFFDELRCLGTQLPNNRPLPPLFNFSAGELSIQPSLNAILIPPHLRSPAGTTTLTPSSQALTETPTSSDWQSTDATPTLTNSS
Glycogen synthase kinase-3 beta, sequence (P49841 whole entry): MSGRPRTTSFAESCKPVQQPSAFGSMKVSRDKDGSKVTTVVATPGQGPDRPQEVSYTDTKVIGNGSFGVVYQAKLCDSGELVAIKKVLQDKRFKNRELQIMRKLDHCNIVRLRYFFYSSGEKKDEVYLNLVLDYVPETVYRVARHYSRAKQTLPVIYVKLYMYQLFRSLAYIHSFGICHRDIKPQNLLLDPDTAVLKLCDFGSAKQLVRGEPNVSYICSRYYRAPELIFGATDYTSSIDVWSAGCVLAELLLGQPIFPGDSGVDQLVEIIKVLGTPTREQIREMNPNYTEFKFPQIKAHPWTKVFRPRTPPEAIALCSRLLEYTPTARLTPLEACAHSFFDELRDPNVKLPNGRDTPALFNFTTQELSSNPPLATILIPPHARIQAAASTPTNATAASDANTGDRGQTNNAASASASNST

Take `CCC1(c2cccc(Oc3ncccn3)c2)C2=C(CC(C)(C)NC2=O)NC2N=NC(F)=C21` (stereo not drawn) [US20250313563, Compound 950615]: the IC50 in test [1] is 0.1 to 1 µM; in test [2], under 0.1 µM.
The matching figures for `CC[C@@]1(c2cccc(-c3cc(C)nn3C)c2)C2=CN=NC2NC2=C1C(=O)CC(C)(C)[C@H]2F` (stereo partly drawn) [US20250313563, Compound 947656]: over 5 µM and 0.1 to 1 µM.
As to `CC[C@]1(c2ccccc2)C2=CN=NC2NC2=C1C(=O)CC1(CCC1)C2` (stereo partly drawn) [US20250313563, Compound 819573], the values for the half-inhibitory concentration (IC50) in test [1] and in test [2] were 0.1 to 1 µM and under 0.1 µM, respectively.
For `CC1(C)CC(=O)C2=C(C1)NC1=C(CN=N1)C21CCOCC1` [US20250313563, Compound 826648] the same measures were 0.1 to 1 µM and 0.1 to 1 µM.
For `CC[C@]1(c2cccc(-c3ccnc4cnccc34)c2)C2=CN=NC2NC2=C1C(=O)NC(C)(C)C2` (stereo partly drawn) [US20250313563, Compound 948819] the same measures were over 5 µM and 1 to 5 µM.
Consider `CC1(C)CC(=O)C2=C(C1)NC1=C(CN=N1)C21CCN(S(=O)(=O)c2ccc(F)c(Cl)c2)CC1` [US20250313563, Compound 948117], for which the IC50 in test [1] and in test [2] was under 0.1 µM throughout.
For the compound `CC[C@@]1(c2cccc(-c3cnn4c3CCCC4)c2)C2=CN=NC2NC2=C1C(=O)NC(C)(C)C2` (stereo partly drawn) [US20250313563, Compound 947410], the IC50 in test [1] is 0.1 to 1 µM and > 5 µM; in test [2], < 0.1 µM and 0.1 to 1 µM.
With `CC[C@]1(c2cccc(-c3cnn(C)c3)c2)C2=C(CC(C)(C)CC2=O)NC2N=NC(C)=C21` (stereo partly drawn) [US20250313563, Compound 913038], the figures for the IC50 in test [1] and in test [2] were 1 to 5 µM and 0.1 to 1 µM, respectively.
For `CC[C@]1(c2cccc(C(F)(F)F)c2)C2=CN=NC2NC2=C1C(=O)NC[C@H]2C` (stereo partly drawn) [US20250313563, Compound 945383] the same measures were 0.1 to 1 µM and under 0.1 µM.
The matching figures for `CC[C@@]1(c2cccc(CN(C)c3ccnc(C)c3)c2)C2=CN=NC2NC2=C1C(=O)CC(C)(C)C2` (stereo partly drawn) [US20250313563, Compound 932665]: over 5 µM and over 5 µM.
The matching figures for `Cc1cnccc1[C@H]1CC[C@@]2(CC1)C1=C(N=NC1)NC1=C2C(=O)CC(C)(C)C1` [US20250313563, Compound 949319]: under 0.1 µM and under 0.1 µM.
On to `CCC1(c2cccc(-c3ccnc(C)c3F)c2)C2=CN=NC2NC2=C1C(=O)CC(C)(C)C2` (stereo not drawn) [US20250313563, Compound 918281], for which the IC50 in test [1] is 0.1 to 1 µM; in test [2], under 0.1 µM.
Take `CCC1(c2cccc(-c3cnn4c3CCCC4)c2)C2=CN=NC2NC2=C1C(=O)CC(C)(C)C2` (stereo not drawn) [US20250313563, Compound 926836]: the half-inhibitory concentration (IC50) in test [1] is 0.1 to 1 µM; in test [2], under 0.1 µM.
The matching figures for `CC1(C)CC(=O)C2=C(C1)NC1=C(CN=N1)C21CN(c2ccccn2)C1` [US20250313563, Compound 945477]: 1 to 5 µM and 1 to 5 µM.
As for `CCn1cc(N2CCC3=C(C2=O)[C@](CC)(c2cccc(C(F)(F)F)c2)C2=CN=NC2N3)cn1` (stereo partly drawn) [US20250313563, Compound 949868], the IC50 in test [1] is over 5 µM; in test [2] it was 0.1 to 1 µM.
Turning to `CCC1(c2cccc(N(C)c3cc(C)nc(C)c3)c2)C2=CN=NC2NC2=C1C(=O)CC(C)(C)C2` (stereo not drawn) [US20250313563, Compound 913256], the IC50 in test [1] was over 5 µM; in test [2], 1 to 5 µM.
The matching figures for `CC[C@]1(c2cccc(-c3cnn(C)c3)c2)C2=C(CC(C)(C)NC2=O)NC2N=NC(F)=C21` (stereo partly drawn) [US20250313563, Compound 949002]: over 5 µM and 1 to 5 µM.
The matching figures for `CC1(C)CC(=O)C2=C(C1)NC1=C(CN=N1)[C@]21CCO[C@@H](C(C)(C)C)C1` [US20250313563, Compound 912106]: 1 to 5 µM and 0.1 to 1 µM.
For `CCC1(c2cccc(N3CCCC3)c2)C2=C(CC(C)(C)CC2=O)NC2N=NC(C(F)(F)F)=C21` (stereo not drawn) [US20250313563, Compound 810506] the same measures were under 0.1 µM and under 0.1 µM.

Usually IC50 stands for the concentration that inhibits the measured activity by half. A lower IC50 goes with higher potency.
